Data taken from US7727980B2, “Tricyclic androgen receptor modulator compounds and methods” (priority 2001, dated 2010).
Like-named read-outs stand apart in the source and are kept apart here.

Assays:
human AR [1] = biological target: T1, human AR (Homo sapiens, UniProt P10275); test: AR whole cell competitive binding assay (3H-DHT), transfected COS-1 cells; set-up: expressed in transfected cells; transient transfection with pRShAR
T1 sequence (P10275 1-920): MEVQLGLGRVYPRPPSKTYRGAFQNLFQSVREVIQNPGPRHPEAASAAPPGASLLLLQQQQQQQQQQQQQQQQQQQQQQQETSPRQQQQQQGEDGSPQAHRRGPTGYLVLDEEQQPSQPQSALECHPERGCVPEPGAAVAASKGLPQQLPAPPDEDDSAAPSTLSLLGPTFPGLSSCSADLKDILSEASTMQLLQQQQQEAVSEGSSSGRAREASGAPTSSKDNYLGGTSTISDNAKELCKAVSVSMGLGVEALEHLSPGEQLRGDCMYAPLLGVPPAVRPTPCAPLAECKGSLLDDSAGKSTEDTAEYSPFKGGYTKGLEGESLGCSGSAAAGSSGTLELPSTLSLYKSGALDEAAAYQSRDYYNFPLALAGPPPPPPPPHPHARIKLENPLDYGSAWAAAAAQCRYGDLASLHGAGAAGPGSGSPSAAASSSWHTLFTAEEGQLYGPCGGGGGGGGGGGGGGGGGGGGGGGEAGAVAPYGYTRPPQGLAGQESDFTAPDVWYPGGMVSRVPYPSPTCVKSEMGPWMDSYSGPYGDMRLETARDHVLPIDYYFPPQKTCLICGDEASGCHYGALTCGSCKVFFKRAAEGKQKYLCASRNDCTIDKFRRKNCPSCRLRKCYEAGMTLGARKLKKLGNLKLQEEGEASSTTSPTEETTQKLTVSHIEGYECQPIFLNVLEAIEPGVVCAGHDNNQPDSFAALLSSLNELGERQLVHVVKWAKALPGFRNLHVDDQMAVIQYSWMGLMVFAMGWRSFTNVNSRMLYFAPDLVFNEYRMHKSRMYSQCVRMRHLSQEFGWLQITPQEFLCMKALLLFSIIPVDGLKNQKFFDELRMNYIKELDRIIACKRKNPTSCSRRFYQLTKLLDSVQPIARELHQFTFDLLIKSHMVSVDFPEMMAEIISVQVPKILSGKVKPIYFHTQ
Description: AR Binding: For the whole cell binding assay, COS-1 cells in 96-well microtiter plates containing DMEM-10% FBS were transfected as described above with the following plasmid DNA: pRShAR (2 ng/well), pRS-β-Gal (50 ng/well) and pGEM (48 ng/well). Six hours after transfection, media was removed, the cells were washed with PBS and fresh media was added. The next day, the media was changed to DMEM-serum free to remove any endogenous ligand that might be complexed with the receptor in the cells.
Three replicates were used for each sample. […] The remaining media was removed, the cells were washed three times with PBS to remove unbound ligand and cells were lysed with a Triton X-100-based buffer.
For the saturation analyses, the difference between the total binding and the nonspecific binding, normalized by the β-Gal rate, was defined as specific binding. […] The Ki values were determined by application of the Cheng-Prusoff equation to the IC50 values, where: […]
After correcting for non-specific binding, IC50 values were determined. […] The IC50 value was determined graphically from a log-logit plot of the data. The Ki values were determined by application of the Cheng-Prusoff equation to the IC50 values, the labeled ligand concentration and the Kd of the labeled ligand.

human AR [2] = biological target: T1, human AR; test: Co-transfection assay, AR agonist activity, CV-1 cells; format: cell-based; set-up: expressed in transfected cells; host or cells: CV-1 cells (African green monkey kidney fibroblasts), transient transfection with pRShAR; conditions: for AR Agonist CV-1 Cells Efficacy (%): percent maximal response relative to reference agonist DHT
Source text: (§1) The co-transfection assay provides a method for identifying functional agonists and partial agonists which mimic, or antagonists which inhibit, the effect of native hormones and quantifying their activity for responsive IR proteins. In this regard, the co-transfection assay mimics an in vivo system in the laboratory. Importantly, activity in the co-transfection assay correlates very well with known in vivo activity, such that the co-transfection assay functions as a qualitative and quantitative predictor of a tested compounds in vivo pharmacology. See, e.g., T. Berger et al. 41 J. Steroid Biochem. Molec.
(§2) In the co-transfection assay, a cloned cDNA for an IR (e.g., human PR, AR or GR) under the control of a constitutive promoter (e.g., the SV 40 promoter) is introduced by transfection (a procedure to induce cells to take up foreign genes) into a background cell substantially devoid of endogenous IRs. This introduced gene directs the recipient cells to make the IR protein of interest. A second gene is also introduced (co-transfected) into the same cells in conjunction with the IR gene. This second gene, comprising the cDNA for a reporter protein, such as firefly luciferase (LUC), controlled by an appropriate hormone responsive promoter containing a hormone response element (HRE). This reporter plasmid functions as a reporter for the transcription-modulating activity of the target IR. Thus, the reporter acts as a surrogate for the products (mRNA then protein) normally expressed by a gene under control of the target receptor and its native hormone.
(§3) The co-transfection assay can detect small molecule agonists or antagonists of target IRs. Exposing the transfected cells to an agonist ligand compound increases reporter activity in the transfected cells. This activity can be conveniently measured, e.g., by increasing luciferase production, which reflects compound-dependent, IR-mediated increases in reporter transcription. […] To detect antagonists, the co-transfection assay is carried out in the presence of a constant concentration of an agonist to the target IR (e.g., progesterone for PR) known to induce a defined reporter signal. Increasing concentrations of a suspected antagonist will decrease the reporter signal (e.g., luciferase production). The co-transfection assay is therefore useful to detect both agonists and antagonists of specific IRs. Furthermore, it determines not only whether a compound interacts with a particular IR, but whether this interaction mimics (agonizes) or blocks (antagonizes) the effects of the native regulatory molecules on target gene expression, as well as the specificity and strength of this interaction.
(§4) CV-1 cells (African green monkey kidney fibroblasts) were cultured in the presence of Dulbecco's Modified Eagle Medium (DMEM) supplemented with 10% charcoal resin-stripped fetal bovine serum then transferred to 96-well microtiter plates one day prior to transfection.
(§5) The reporter plasmid, MTV-LUC, contains the cDNA for firefly luciferase (LUC) under control of the mouse mammary tumor virus (MTV) long terminal repeat, a conditional promoter containing an androgen response element. See e.g., Berger et al. supra. In addition, pRS-β-Gal, coding for constitutive expression of E. coli β-galactosidase (β-Gal), was included as an internal control for evaluation of transfection efficiency and compound toxicity.
(§6) Six hours after transfection, media was removed and the cells were washed with phosphate-buffered saline (PBS). […] Three to four replicates were used for each sample. Transfections and subsequent procedures were performed on a Biomek 1000 automated laboratory work station.
(§7) After 40 hours, the cells were washed with PBS, lysed with a Triton X-100-based buffer and assayed for LUC and β-Gal activities using a luminometer or spectrophotometer, respectively. For each replicate, the normalized response (NR) was calculated as: LUC response/β-Gal rate • where β-Gal rate=β-Gal·1×10^−5/β-Gal incubation time.

human AR [3] = biological target: T1, human AR; test: Co-transfection assay, AR antagonist activity in presence of DHT, CV-1 cells; format: cell-based; set-up: expressed in transfected cells; host or cells: CV-1 cells (African green monkey kidney fibroblasts), transient transfection with pRShAR; conditions: for AR Antagonist CV-1 Cells Efficacy (%): percent maximal inhibition, DHT at its EC50 concentration
Source text: as §1, §2, §3, §4, §5, §6, §7

[4] = AR Binding Ki (nM), COS-1 cells, 1 nM 3H-DHT, Cheng-Prusoff from IC50
[5] = AR Agonist CV-1 Cells Potency (nM), agonist potency or EC50
[6] = AR Antagonist CV-1 Cells Potency (nM), CV-1 cells, antagonist potency or IC50, DHT at its EC50 concentration

Compound | Ki (human AR [1]; [4]) [nM] | EC50 (human AR [2]; [5]) [nM] | AR Agonist CV-1 Cells Efficacy (%) (human AR [2]) | IC50 (human AR [3]; [6]) [nM] | AR Antagonist CV-1 Cells Efficacy (%) (human AR [3]; CV-1 cells) | IC50 (human AR [3]) [nM] | Ki (human AR [1]; COS-1 cells, 1 nM 3H-DHT, Cheng-Prusoff from IC50, read-out: AR Binding Ki) [nM] | EC50 (human AR [2]; agonist potency or EC50, read-out: AR Agonist CV-1 Cells Potency) [nM] | IC50 (human AR [3]; CV-1 cells, antagonist potency or IC50, DHT at its EC50 concentration, read-out: AR Antagonist CV-1 Cells Potency) [nM] | Ki (human AR [1]; read-out: AR Binding Ki) [nM]
C=CCc1c(C)[nH]c2c1ccc1[nH]c(=O)cc(C(F)(F)F)c12 [Compound 173, 7-Allyl-6-methyl-4-trifluoromethyl-5H-pyrrolo[2,3-f]quinolin-2(1H)-one] | 80 | 138 | 41% | 1 | 56% |  |  |  |  | 
CCC1CCOc2c1ccc1[nH]c(=O)cc(C)c21 (racemic) [Compound 215, (±)-7,8-Dihydro-8-ethyl-4-methyl-6H-pyrano[2,3-f]quinolin-2(1H)-one] | 47 | 2070 | 28% |  | 77% | 17 |  |  |  | 
5-Ethyl-6-propyl-7-(2,2,2-trifluoroethyl)-4-trifluoromethyl-7H-pyrrolo[3,2-f]quinolin-2(1H)-one [Compound 155] |  |  | 59% |  | na (na = not active (i.e. efficacy of <20 and potency of >10,000)) |  | 7.4 | 9.4 | > 10000 | 
CCC1(CC)CCc2c(ccc3[nH]c(=O)cc(C(F)(F)F)c23)N1 [Compound 105, 5,6,7,8-Tetrahydro-7,7-diethyl-4-trifluoromethylpyridino[3,2-f]quinolin-2(1H)-one] | 45 | 32 | 57% | > 10000 | na (na = not active (i.e. efficacy of <20 and potency of >10,000)) |  |  |  |  | 
CCN1c2cc3c(C(F)(F)F)cc(=O)[nH]c3cc2C2CCCC21 (racemic) [Compound 122, (±)-6,6a 7,8,9,9a(cis)-Hexahydro-6-ethyl-4-trifluoromethylcyclopentano-[i]pyrrolo[2,3-g]quinolin-2(1H)-one] | 21 | 34 | 59% | > 10000 | na (na = not active (i.e. efficacy of <20 and potency of >10,000)) |  |  |  |  | 
CC1(C)C=Cc2c(ccc3[nH]c(=O)cc(C(F)(F)F)c23)N1 [Compound 106, 7,8-Dihydro-7,7-dimethyl-4-trifluoromethylpyridino[3,2-f]quinolin-2(1H)-one] | 45 | 12 | 108% | > 10000 | na (na = not active (i.e. efficacy of <20 and potency of >10,000)) |  |  |  |  | 
CC1C(c2ccc(N(C)C)cc2)c2c(ccc3[nH]c(=O)cc(C(F)(F)F)c23)N1CC(F)(F)F (racemic) [Compound 137, (±)-5,6-cis-Dihydro-5-(4-dimethylaminophenyl)-6-methyl-7-(2,2,2-trifluoroethyl)-4-trifluoromethyl-7H-pyrrolo[3,2-f]quinolin-2(1H)-one] |  | 145 | 77% |  | na (na = not active (i.e. efficacy of <20 and potency of >10,000)) | > 10000 |  |  |  | 107
O=c1cc(C(F)(F)F)c2cc3c(cc2[nH]1)CCCN3CC(F)(F)F [Compound 198, 4-Trifluoromethyl-6-(2,2,2-trifluoroethyl)-6,7,8,9-tetrahydropyrido[2,3-g]quinolin-2(1H)-one] | 58 | 1.7 | 47% | > 10000 | na (na = not active (i.e. efficacy of <20 and potency of >10,000)) |  |  |  |  | 
CCCN1c2ccc3[nH]c(=O)cc(C(F)(F)F)c3c2CCC1(C)C [Compound 109, 5,6,7,8-Tetrahydro-7,7-dimethyl-4-trifluoromethyl-8-propylpyridino[3,2-f]quinolin-2(1H)-one] | 1.2 | 13 | 97% | > 10000 | na (na = not active (i.e. efficacy of <20 and potency of >10,000)) |  |  |  |  | 
CC1c2c(ccc3[nH]c(=O)cc(C(F)(F)F)c23)N(CC(F)(F)F)C1C (racemic) [Compound 123, (±)-5,6-Dihydro-5,6-cis-dimethyl-7-(2,2,2-trifluoroethyl)-4-trifluoromethyl-7H-pyrrolo[3,2-f]quinolin-2(1H)-one] | 14 | 1.4 | 104% | > 10000 | na (na = not active (i.e. efficacy of <20 and potency of >10,000)) |  |  |  |  | 
CCc1[nH]c2c(ccc3[nH]c(=O)cc(C(F)(F)F)c32)c1C [Compound 175, 6-Ethyl-7-methyl-4-trifluoromethyl-5H-pyrrolo[2,3-f]quinolin-2(1H)-one] | 239 | > 10000 | na (na = not active (i.e. efficacy of <20 and potency of >10,000)) | 11 | 78% |  |  |  |  | 
